T/C data for 29 molecules are collected here from PubChem BioAssay AID330 (DTP/NCI, 2004).

Values joined by “and” are separate entries in the source; they are usually repeats but may differ in a detail not shown here. Equal values may be shown once. Toxic doses and inconclusive results are not listed.

This test deals with P388 leukemia ip, CD2F1 mice, survival T/C. Kind of test: NCI In Vivo Anticancer Drug Screen. Data for tumor model P388 Leukemia (intraperitoneal) in CD2F1 (CDF1) mice. The following applies: endpoint: median survival time, higher = longer survival. An outline of the steps: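 Mice carrying the transplanted tumor received test compound or vehicle. Survival was recorded in each group, and the value is the treated-group measurement divided by that of the vehicle-treated control group.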

[1] abbreviates: dose: 50.0 mg/kg/injection, schedule: Q04DX003 (ip), vehicle: saline with Tween-80.
Where [2] appears, read: dose: 50.0 mg/kg/injection, schedule: Q01DX009 (ip), vehicle: saline with Tween-80.
[3] abbreviates: dose: 100.0 mg/kg/injection, schedule: Q01DX009 (ip), vehicle: saline with Tween-80.
Setting [4] is: dose: 200.0 mg/kg/injection, schedule: Q01DX009 (ip), vehicle: saline with Tween-80.
The mark [5] stands for this setting: dose: 50.0 mg/kg/injection, schedule: Q01DX009 (ip), vehicle: Klucel (hydroxypropylcellulose) (HPC).
[6] abbreviates: dose: 100.0 mg/kg/injection, schedule: Q01DX009 (ip), vehicle: Klucel (hydroxypropylcellulose) (HPC).
The mark [7] stands for this setting: dose: 200.0 mg/kg/injection, schedule: Q01DX009 (ip), vehicle: Klucel (hydroxypropylcellulose) (HPC).
Where [8] appears, read: dose: 50.0 mg/kg/injection, schedule: Q01DX005 (ip), vehicle: saline with Tween-80.
Setting [9] is: dose: 100.0 mg/kg/injection, schedule: Q01DX005 (ip), vehicle: saline with Tween-80.
Setting [10] is: dose: 200.0 mg/kg/injection, schedule: Q01DX005 (ip), vehicle: saline with Tween-80.
[11] abbreviates: dose: 60.0 mg/kg/injection, schedule: Q01DX005 (ip), vehicle: saline with Tween-80.
Where [12] appears, read: dose: 120.0 mg/kg/injection, schedule: Q01DX005 (ip), vehicle: saline with Tween-80.
The mark [13] stands for this setting: dose: 240.0 mg/kg/injection, schedule: Q01DX005 (ip), vehicle: saline with Tween-80.
The mark [14] stands for this setting: dose: 25.0 mg/kg/injection, schedule: Q01DX009 (ip), vehicle: Klucel (hydroxypropylcellulose) (HPC).
[15] abbreviates: dose: 100.0 mg/kg/injection, schedule: Q04DX002 (ip), vehicle: saline with Tween-80.
Setting [16] is: dose: 200.0 mg/kg/injection, schedule: Q04DX002 (ip), vehicle: saline with Tween-80.
Where [17] appears, read: dose: 15.0 mg/kg/injection, schedule: Q01DX005 (ip), vehicle: saline with Tween-80.
The mark [18] stands for this setting: dose: 30.0 mg/kg/injection, schedule: Q01DX005 (ip), vehicle: saline with Tween-80.
The mark [19] stands for this setting: dose: 50.0 mg/kg/injection, schedule: Q01DX005 (ip), vehicle: saline.
Setting [20] is: dose: 100.0 mg/kg/injection, schedule: Q01DX005 (ip), vehicle: saline.

On to `COC(=O)C(F)C(N)C(=O)O` (stereo unspecified), for which the T/C reads like this: (dose: 12.5 mg/kg/injection, schedule: Q04DX003 (ip), vehicle: saline with Tween-80) 100 % of control; (dose: 25.0 mg/kg/injection, schedule: Q04DX003 (ip), vehicle: saline with Tween-80) 101 % of control; under setting [1], 99 % of control; (dose: 200.0 mg/kg/injection, schedule: Q04DX003 (ip), vehicle: saline) 103 % of control; (dose: 400.0 mg/kg/injection, schedule: Q04DX003 (ip), vehicle: saline) 90 % of control.
With `N#Cc1[nH]nc2nc[nH]c(=O)c12`, the T/C reads like this: (dose: 100.0 mg/kg/injection, schedule: Q04DX002 (ip), vehicle: water) 114 % of control; (dose: 200.0 mg/kg/injection, schedule: Q04DX002 (ip), vehicle: water) 113 % of control.
`Cc1ccc(N=C2N=C(Nc3ccc(C)cn3)c3ccccc32)nc1`: the T/C is 92 % of control under setting [2], 91 % of control under setting [3] and 96 % of control under setting [4].
For `COc1cc2nc3occc3c(OC)c2cc1OCC(O)C(C)(C)O` (stereo unspecified), the T/C was 91 % of control (dose: 12.5 mg/kg/injection, schedule: Q01DX005 (ip), vehicle: distilled water + Tween-80) and 98 % of control (dose: 25.0 mg/kg/injection, schedule: Q01DX005 (ip), vehicle: distilled water + Tween-80).
`CC1CCOn2c1nc1ccccc1c2=O` (stereo unspecified): the T/C is 97 % of control under setting [5], 102 % of control under setting [6] and 113 % of control under setting [7].
Turning to `C1=[N+]2N=C(SCc3ccccc3)S[B-]2([C+]2CCCCC2)Oc2ccccc21` (stereo unspecified), the T/C under setting [8] was 91 % of control, the T/C under setting [9] was 94 % of control and the T/C under setting [10] was 91 % of control.
Regarding `COc1ccc(C(C)(C)c2cc3c(cc2OCCO)OCO3)cc1`, the T/C is 96 % of control under setting [11], 101 % of control under setting [12] and 105 % of control under setting [13].
Take `O=[N+]([O-])c1cc(S(=O)(=O)c2ccc(F)c([N+](=O)[O-])c2)ccc1F`: the T/C (dose: 3.12 mg/kg/injection, schedule: Q01DX009 (ip), vehicle: Klucel (hydroxypropylcellulose) (HPC)) was 102 % of control; the T/C (dose: 6.25 mg/kg/injection, schedule: Q01DX009 (ip), vehicle: Klucel (hydroxypropylcellulose) (HPC)) is 108 % of control; the T/C (dose: 12.5 mg/kg/injection, schedule: Q01DX009 (ip), vehicle: Klucel (hydroxypropylcellulose) (HPC)) is 114 % of control; the T/C under setting [14] is 108 % of control.
Turning to `O=C1c2cc([N+](=O)[O-])cc3cc([N+](=O)[O-])cc(c23)C(=O)N1CCN1CCN(CCN2C(=O)c3cc([N+](=O)[O-])cc4cc([N+](=O)[O-])cc(c34)C2=O)CC1`, the T/C is 100 % of control under setting [15]; 97 % of control under setting [16]; 94 % of control (dose: 400.0 mg/kg/injection, schedule: Q04DX002 (ip), vehicle: saline with Tween-80).
Regarding `CC(N)C(=O)NC(C)C(=O)NC(C)C(=O)O` (stereo unspecified), the T/C is, setting by setting: (dose: 50.0 mg/kg/injection, schedule: Q01DX005 (ip), vehicle: Klucel (hydroxypropylcellulose) (HPC)) 104 % of control; (dose: 100.0 mg/kg/injection, schedule: Q01DX005 (ip), vehicle: Klucel (hydroxypropylcellulose) (HPC)) 106 % of control; (dose: 200.0 mg/kg/injection, schedule: Q01DX005 (ip), vehicle: Klucel (hydroxypropylcellulose) (HPC)) 101 % of control.
As to `C(=Nc1ccc(N=Cc2ccccc2P(c2ccccc2)c2ccccc2)cc1)c1ccccc1P(c1ccccc1)c1ccccc1`, the T/C runs as follows: under setting [5], 99 % of control; under setting [6], 99 % of control; under setting [7], 99 % of control.
For `CNC1C(O)C2Oc3c(cc(O)c4c3C(=O)c3cc5c(c(O)c3C4=O)C(OC)CC(C)(O)C5)C(C)(O2)C1O` (stereo unspecified), the T/C is, setting by setting: (dose: 0.62 mg/kg/injection, schedule: Q01DX009 (ip), vehicle: saline) 151 % of control; (dose: 1.25 mg/kg/injection, schedule: Q01DX009 (ip), vehicle: saline) 173 % of control; (dose: 2.5 mg/kg/injection, schedule: Q01DX009 (ip), vehicle: saline) 115 % of control.
Regarding `O=c1[nH]c2ccccc2nc1/C=C(\O)c1ccc([N+](=O)[O-])cc1`, the T/C is, setting by setting: (dose: 7.5 mg/kg/injection, schedule: Q01DX005 (ip), vehicle: Klucel + Tween-80) 100 % of control; (dose: 15.0 mg/kg/injection, schedule: Q01DX005 (ip), vehicle: Klucel + Tween-80) 89 % of control; (dose: 30.0 mg/kg/injection, schedule: Q01DX005 (ip), vehicle: Klucel + Tween-80) 86 % of control.
For `Oc1cccc(NCNC2Nc3ccccc3N2)c1`, the T/C under setting [17] was 94 % of control and the T/C under setting [18] was 95 % of control.
With `CC1N=C(SCC(=O)c2ccc(Cl)cc2)N2C(C)N=C(SCC(=O)c3ccc(Cl)cc3)N12` (stereo unspecified), the T/C was 98 % of control (dose: 50.0 mg/kg/injection, schedule: Q01DX009 (ip), vehicle: saline); 90 % of control (dose: 100.0 mg/kg/injection, schedule: Q01DX009 (ip), vehicle: saline); 90 % of control (dose: 200.0 mg/kg/injection, schedule: Q01DX009 (ip), vehicle: saline).
Regarding `Cc1ccc(C)c(NC(=O)CCC(=O)C(C#N)c2nc3ccccc3s2)c1` (stereo unspecified), the T/C is, setting by setting: under setting [11], 103 % of control; under setting [12], 102 % of control; under setting [13], 97 % of control.
The matching figures for `CCOC(=O)C1(C(=O)OCC)C(C)CC(=O)N1c1ccccc1OC` (stereo unspecified): 104 % of control, 100 % of control and 95 % of control.
Regarding `Cc1ccc(N2CC(=O)N3CCCC(C)N3C(=O)C2)cc1` (stereo unspecified), the T/C is 99 % of control under setting [8], 99 % of control under setting [9] and 99 % of control under setting [10].
Regarding `Cc1oc2ccccc2c(=O)c1Cn1nnc2ccccc21`, the T/C was 103 % of control under setting [11], 103 % of control under setting [12] and 94 % of control under setting [13].
In the case of `NC(Cc1ccccc1Cl)c1nn[nH]n1` (stereo unspecified), the T/C by setting is: (dose: 25.0 mg/kg/injection, schedule: Q04DX002 (ip), vehicle: saline with Tween-80) 99 % of control and 93 % of control; (dose: 50.0 mg/kg/injection, schedule: Q04DX002 (ip), vehicle: saline with Tween-80) 107 % of control and 95 % of control and 96 % of control; under setting [15], 100 % of control; under setting [16], 98 % of control and 100 % of control.
As for `O=C1CC2(C(=O)O1)C1C(=O)OC(=O)C1C1c3ccccc3C=NN12` (stereo unspecified), the T/C was 98 % of control under setting [2], 93 % of control under setting [3] and 100 % of control under setting [4].
`[N-]=[N+]=NC(=O)c1cnn(-c2ccccc2)c1N`: the T/C reads like this: under setting [17], 101 % of control; under setting [18], 97 % of control; under setting [11], 106 % of control and 95 % of control.
On to `O=S(=O)(O)CN(CS(=O)(=O)O)c1nc(N(CS(=O)(=O)O)CS(=O)(=O)O)nc(N(CS(=O)(=O)O)CS(=O)(=O)O)n1`, for which the T/C was 92 % of control under setting [8], 99 % of control under setting [9] and 101 % of control under setting [10].
`COc1ccccc1/C=N/Nc1ccc2ccccc2n1`: the T/C is 93 % of control under setting [1]; 90 % of control (dose: 100.0 mg/kg/injection, schedule: Q04DX003 (ip), vehicle: saline with Tween-80); 90 % of control (dose: 200.0 mg/kg/injection, schedule: Q04DX003 (ip), vehicle: saline with Tween-80).
Turning to `[Cl][Pd][Cl].[NH-]CCN1CC1`, the T/C runs as follows: under setting [14], 119 % of control; under setting [5], 112 % of control; under setting [6], 114 % of control.
`C=CCC(C=C=CCN(C)C)CO` (stereo unspecified): the T/C under setting [19] is 103 % of control and the T/C under setting [20] was 104 % of control.
On to `Cc1cc(C)n(C(=O)n2nc(C)cc2C)n1`, for which the T/C under setting [19] is 100 % of control; the T/C under setting [20] is 107 % of control; the T/C (dose: 200.0 mg/kg/injection, schedule: Q01DX005 (ip), vehicle: saline) was 100 % of control.
On to `CCOC(=O)c1cnc2cc3c(c[nH]n3C(c3ccccc3)(c3ccccc3)c3ccccc3)cc2c1=O`, for which the T/C runs as follows: under setting [2], 94 % of control; under setting [3], 96 % of control; under setting [4], 97 % of control.
Turning to `OCc1c(CO)c(C(F)(F)F)n2c1CCC2`, the T/C is 104 % of control under setting [5] and 104 % of control under setting [6].
